The melting point is the temperature of the solid-liquid transition. One may read the boiling point as the temperature at which the vapour pressure of the liquid equals the pressure above it.

Conditions in the first series: not given
The compound `CCCCOC(=O)c1ccc([N+](=O)[O-])cc1` had a melting point of 35.5 °C. In the case of `Cc1cncc(C)c1`, the boiling point was 172 °C, the log10 Henry constant (atm·m³/mol) is -5.16, the log10 vapour pressure (mmHg) stood at 0.239 and the melting point was -6.6 °C. Turning to `CC1(C)COC(=O)C1O` (stereo not drawn), the melting point came to 92 °C and the ready biodegradability entry is “readily biodegradable”. In turn, `CC(C)(C)C1CCCCC1O` (stereo not drawn) gave a melting point of 45 °C.

Compound `C=CCCCCl` gave a boiling point of 105 °C. With `Oc1ccc(O)cc1`, the boiling point was determined as 287 °C, the log10 vapour pressure (mmHg) is -4.62, the melting point is 172 °C and the ready biodegradability entry is listed as “readily biodegradable”. In turn, `CCCOCC(C)C` yielded a boiling point of 107 °C. `O=Cc1ccc(Cl)cc1Cl` displayed a boiling point of 233 °C and a melting point of 72 °C. The corresponding values for `[Se]=C=[Se]` are 126 °C and -45.5 °C. The compound `O=[N+]([O-])c1ccc(N=Nc2ccc(O)cc2O)cc1` displayed a melting point of 200 °C.

For the compound `C=CCCCCCCCCCCCC`, the boiling point is 233 °C, the log10 vapour pressure (mmHg) is -1.82 and the melting point is -12 °C. For `CCc1ccccc1`, the boiling point turned out to be 136 °C, the log10 Henry constant (atm·m³/mol) is -2.1, the log10 Koa came to 3.74 and the log10 Koc (L/kg) came out at 2.23. Further, the log10 biodegradation half-life (days) was found to be 0.903, the log10 vapour pressure (mmHg) worked out at 0.982 and the melting point was -94.9 °C. The compound `C=CC(=O)OCCN(CC)CC` had a melting point of -60 °C. The compound `CCOC(=O)c1ccccc1` returned a boiling point of 212 °C, a log10 Koc (L/kg) of 2.3, a log10 vapour pressure (mmHg) of -0.574 and a melting point of -34 °C. In turn, `Clc1cc(Cl)c2cccc(Cl)c2c1` returned a log10 Koa of 7.32. As to `O=S(=O)([O-])CCN1CC[NH+](CCO)CC1`, the melting point was found to be 234 °C. As to `COC(=O)C1(S(=O)(=O)c2ccccc2)CCC1`, the melting point was 108 °C. `CCCSC` had a boiling point of 95.6 °C, a log10 vapour pressure (mmHg) of 1.71 and a melting point of -113 °C.

As for `CCCC(C)OC(C)=O` (stereo not drawn), the boiling point amounted to 130 °C and the melting point is -100 °C.

Compound `CCO[Si](C)(C)C` yielded a boiling point of 76 °C and a log10 vapour pressure (mmHg) of 2.06. `O=C(/C=C/c1ccc([N+](=O)[O-])cc1)c1ccccc1`: the melting point came to 159 °C. With `C=C(C)c1cc(=O)c(O)ccc1CC=C(C)C`, the melting point was found to be 71.5 °C.

In turn, `C[C@@H]1CC[C@H]2[C@@H]1[C@H]1[C@@H](CC[C@@]2(C)O)C1(C)C` registered a boiling point of 292 °C and a melting point of 105 °C. For `CCC(C(=O)O)c1ccc(-c2ccccc2)cc1` (stereo not drawn), the melting point is 124 °C. Consider `Cc1cccc([N+](=O)[O-])c1`, for which the boiling point was 232 °C, the log10 Henry constant (atm·m³/mol) is -5.03, the log10 vapour pressure (mmHg) is -0.687 and the melting point worked out at 15.5 °C. In addition, the ready biodegradability result is reported as “not readily biodegradable”. Regarding `CC(C)(C)CC(C)(C)c1ccc(O)cc1`, the log10 vapour pressure (mmHg) is -3.32, the melting point came out at 84.5 °C and the ready biodegradability result is reported as “not readily biodegradable”. Turning to `C#CCCCCC#C`, the boiling point turned out to be 136 °C. Turning to `CC#N`, the boiling point amounted to 81.6 °C, the log10 Henry constant (atm·m³/mol) was -4.46, the log10 Koa is 2.31 and the log10 vapour pressure (mmHg) turned out to be 1.95. Moreover, the melting point was -43.8 °C and the ready biodegradability result is “readily biodegradable”. Consider `Cc1ncc([N+](=O)[O-])n1CC(O)CCl` (stereo not drawn), for which the melting point is 77.5 °C. Consider `CC(C)=CC(=O)C=C(C)C`, for which the boiling point turned out to be 198 °C, the log10 vapour pressure (mmHg) is -0.557 and the melting point was 28 °C.

The compound `COc1ccccc1OCC(O)CO` (stereo not drawn) showed a melting point of 78.5 °C. Take `COc1ncnc(NS(=O)(=O)c2ccc(N)cc2)c1OC`: the melting point was 192 °C. In turn, `CC(C)CCCCO` showed a boiling point of 170 °C. For `CNC(C)C`, the boiling point was 50.4 °C. For `CCCCCCCCCCCCCCCCCCC1CO1` (stereo not drawn), the ready biodegradability result is on record as “readily biodegradable”.

On to `NC(=O)c1ccncc1`, for which the melting point was 156 °C. Regarding `OCc1cccc(Cl)c1`, the boiling point amounted to 237 °C.

As to `C=CCOC=O`, the boiling point came to 83.6 °C. `CCCSc1ccc2[nH]c(NC(=O)OC)nc2c1` yielded a melting point of 209 °C. `CC[C@@H](C(=O)O)c1ccccc1` returned a boiling point of 271 °C and a melting point of 47.5 °C. For the compound `CCC[C@@H](C)S`, the boiling point came out at 113 °C and the melting point was -169 °C.

The compound `COc1ccc(Cl)nn1` had a melting point of 84.5 °C. `Clc1ccc2c(Cl)ccc(Cl)c2c1Cl` yielded a log10 Koa of 8.4. Compound `CC(C)CC(=O)OC(=O)CC(C)C` had a boiling point of 215 °C.

The compound `CC(C)c1ccccc1N` gave a boiling point of 221 °C. Compound `N#Cc1c(F)cccc1F` yielded a melting point of 31 °C. Consider `Cc1cccc2c1ccc1cc(C(C)C)ccc12`, for which the boiling point turned out to be 390 °C and the melting point was 101 °C. `C=C(Cl)c1ccccc1` registered a boiling point of 199 °C and a melting point of -23 °C. The compound `Cc1cccc(C(=O)O)c1S(=O)(=O)NC(=O)Nc1nc(OCC(F)(F)F)nc(N(C)C)n1` returned a melting point of 162 °C. In the case of `CCF`, the boiling point is -37.6 °C, the log10 vapour pressure (mmHg) is 3.84 and the melting point is -143 °C.

Still in this series, the particulars now being: fish.
`CNc1ccccc1C` came in with a log10 BCF of 0.95 and a log10 biotransformation half-life (days) of -0.74. On to `C1=Cc2cccc3cccc1c23`, for which the log10 BCF worked out at 2.43 and the log10 biotransformation half-life (days) is 0.52. In turn, `c1cc2c3c(cccc3c1)CC2` gave a log10 BCF of 2.88. In the case of `CCC(=O)Nc1ccc(Cl)c(Cl)c1`, the log10 BCF is 1.84. The same measure, in the same setting: the value for `O=C1c2ccccc2C(=O)c2c(O)cccc21` was 2.25. Compound `Cc1ccc([N+](=O)[O-])cc1` came in with a log10 BCF of 0.9 and a log10 biotransformation half-life (days) of -1.01. Take `Cc1cccc([N+](=O)[O-])c1`: the log10 BCF stood at 1.08 and the log10 biotransformation half-life (days) is -0.79. `CC(C)(C)CC(C)(C)c1ccc(O)cc1` displayed a log10 BCF of 2.46 and a log10 biotransformation half-life (days) of -0.04. `OCc1cccc(Cl)c1` gave a log10 BCF of 1.29.

The values above are taken from the OPERA property sets (Mansouri et al. 2018).
